These results are taken from patent US11628221B2, “Peptide linker and combination for prodrugs activated by prostate-specific antigen” (priority 2017, dated 2023).

One may read the half-life as the time in which the quantity being followed falls by half. Usually pIC50 stands for the negative decadic logarithm of the IC50, by convention in mol/L.

pIC50: −log10 of the molar value. Where two headings read alike, the source gives them in different places. Numbered stars: 1 amine (or outer) side, 2 acyl side, 3 side chain; on linkers, the order of the positions; unused ones are H or OH. Square brackets hold non-standard residues; d marks the D form. Peptide text beside a SMILES is read from it. * marks the point of attachment. Doxorubicin(3'-N) = COc1cccc2c1C(=O)c1c(O)c3c(c(O)c1C2=O)C[C@@](O)(C(=O)CO)C[C@@H]3O[C@H]1C[C@H](N*)[C@H](O)[C@H](C)O1; Glutaryl = O=C(CCCC(=O)[*:2])[*:1]; Hyp = O=C(O)[C@@H]1C[C@@H](O)CN1; Chg = N[C@H](C(=O)O)C1CCCCC1; X1 = O=C(O)CCCNC(=O)CC(=O)* Some results are limits rather than exact numbers.

In one series the test system is LNCaP cells. Kind of series: cells. Particulars: for pIC50: read-out: LNCaP IC50. The protocol:
(§1) Monolayer cultures of PSA-secreting LNCaP and non-PSA-secreting DU145 human prostate carcinoma cells were conducted in growth medium in a CO2 incubator under a humidified atmosphere at 37° C. for 3 weeks prior to initiating cytotoxicity experiments. During cell growth, media were changed every 3 days and trypsinization carried out at 80% confluence with a 1:4 split for subsequent cultures. Cells were grown on 96-well plates for 48 h at initial concentrations of 5000 cells/well. At the end of the 48-h period, the growth medium was replaced by serum-free medium RPMI 1640 medium containing L-glutamine (2 mM), 2% TCM, penicillin G (100 units/mL) and streptomycin sulfate (100 units/mL), and prodrugs added to wells at concentrations ranging from 0.07 to 100 μM. The plates were incubated at 37° C. for 72 h under a humidified CO2 atmosphere, and cell viability determined using the MTT assay. Briefly, 10 μL aliquots of a 12 mM MTT solution were added to wells and the plates incubated in a CO2 incubator under a humidified atmosphere at 37° C. for 4 h. Well contents were then solubilized with 1% SDS (100 μL/well) for 12 h, and OD570 values measured on a Dynatech MR5000 plate reader. Cell viability was computed as a percentage of control growth, and IC50 values determined as the concentration at which cell growth is inhibited by 50%.
(§2) To assess cytotoxicity and tumor selectivity, all prodrugs were incubated in cultured cell lines secreting (LNCaP) or lacking (DU145) PSA for a period of 72 h. Doxorubicin was used as a positive control and cell viability determined at the end of the incubation period using an MTT assay. It was anticipated that peptide prodrugs would be activated extracellularly in LNCaP, but not DU145 cells, by the proteolytic action of PSA releasing doxorubicin that would ultimately lead to cell death.

Series [1] deals with PSA (prostate-specific antigen) (Homo sapiens, UniProt P07288). Kind of series: Hydrolysis of doxorubicin prodrugs by PSA (PSA enzyme assay, LC-MS/MS prodrug disappearance). Particulars: human, pH 8.
Method: (§3) For doxorubicin conjugates, peptide solution concentrations were determined by measuring the UV absorbance at 484 and 254 nm (20 μM for doxorubicin and 50 μM for phosphoramide mustard conjugates, respectively) of solutions prepared (based on weight) in water from 10 mM DMSO stock solutions. Using the extinction coefficients of doxorubicin at 484 nm (10,800 M-1·cm-1), peptide concentrations were calculated and adjusted accordingly to prepare 100 μM solutions in 50 mM Tris buffer, pH 8 containing 2 mM CaCl2 and 0.1% Tween 20. […] Peptide solutions were prepared in Tris buffer pH 8 at a concentration of 1.11 μM from 1 mM DMSO stock solutions, and warmed up to 37° C. Reactions were initiated at 37° C. with the addition of 5 μL aliquots of a 10 μM solution of human PSA to 45 μL aliquots of the 1.11 μM peptide solutions in eppendorf vials (total volume 50 μL, final PSA concentration 1 μM), and time points recorded over a period of 3 h. Reactions were terminated at 0, 10, 20, 30, 60, 120, 180 and 360 min by quenching 2 μL aliquots of incubates with 20 μL of chilled 50% ACN containing 0.1 μM internal standard (IS) and 0.1% formic acid (FA) pre-added to eppendorf vials. Samples were centrifuged at 3000 RPM for 15 min and the supernatants analyzed by LC-MS/MS in SRM mode as previously described. The fraction of prodrug remaining at each time point was calculated by dividing the prodrug/IS ratio by the 0-h prodrug/IS area ratio and half-life determined from prodrug disappearance rate.
(§4) Substrate disappearance was monitored by LC-MS/MS analysis using SRM. The percentage of prodrug remaining at any given time point was computed by taking the ratio of its peak area response and that of the 0-h time point.
In the next series the test system is tumor cells. The settings on record: cited from earlier work.
The test system of another series is DU145 cells. Kind of series: Prodrug cytotoxicity in non-PSA-secreting DU145 cells (MTT assay), selectivity. It counts as cell-based, human. Particulars: LNCaP versus non-PSA-secreting DU145 cells, 72 h. As for the experimental part:
as §1, §2

The target of another series is human PSA (Homo sapiens, UniProt P07288). Briefly: Hydrolysis of doxorubicin prodrugs by PSA (PSA enzyme assay, LC-MS/MS prodrug disappearance). The settings on record: for % of prodrug at 60 min: prodrug 1 μM incubated with human PSA 1 μM, 50 mM Tris buffer pH 8, 37° C.
Where [2] appears, read: 72 h incubation, MTT assay, PSA-secreting LNCaP cells.

Chain of human PSA (P07288 25-261): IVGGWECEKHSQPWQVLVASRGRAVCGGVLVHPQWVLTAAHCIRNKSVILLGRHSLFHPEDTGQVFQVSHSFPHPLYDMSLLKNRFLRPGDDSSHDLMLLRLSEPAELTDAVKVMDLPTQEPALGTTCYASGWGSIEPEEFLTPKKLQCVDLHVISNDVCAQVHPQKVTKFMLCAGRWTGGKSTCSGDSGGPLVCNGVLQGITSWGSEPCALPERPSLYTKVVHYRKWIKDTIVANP
Chain of PSA (prostate-specific antigen) (P07288 25-261): as above
Method for human PSA: as §3, §4

For `COc1cccc2c1C(=O)c1c(O)c3c(c(O)c1C2=O)C[C@@](O)(C(=O)CO)C[C@@H]3O[C@H]1C[C@H](NC(=O)[C@H](CC(C)C)NC(=O)[C@H](CO)NC(=O)[C@H](CCC(N)=O)NC(=O)[C@@H](NC(=O)[C@H](CO)NC(=O)[C@H](C)NC(=O)CC(=O)NCCCC(=O)O)C2CCCCC2)[C@H](O)[C@H](C)O1` [Prodrug 3, GABA←mGly-Ala-Ser-Chg-Gln-Ser-Leu-Dox] (X1-AS[Chg]QSL-{Doxorubicin(3'-N)}), the “cytotoxicity against PSA-secreting LNCaP cells (in words)” value with LNCaP cells (72 h, MTT assay) is “most cytotoxic prodrug”. Further, the half-life at 1 μM in series [1] turned out to be 22 min.
Turning to `COc1cccc2c1C(=O)c1c(O)c3c(c(O)c1C2=O)C[C@@](O)(C(=O)CO)C[C@@H]3O[C@H]1C[C@H](NC(=O)[C@@H](N)CC(C)C)[C@H](O)[C@H](C)O1` [Leu-Doxorubicin], the “fold less cytotoxic (than doxorubicin)” value with tumor cells (Wong et al. (2001)) is given as 10 fold.
`COc1cccc2c1C(=O)c1c(O)c3c(c(O)c1C2=O)C[C@@](O)(C(=O)CO)C[C@@H]3O[C@H]1C[C@H](NC(=O)[C@H](CC(C)C)NC(=O)[C@H](CO)NC(=O)[C@H](CCC(N)=O)NC(=O)[C@@H](NC(=O)[C@H](CO)NC(=O)[C@H](C)NC(=O)[C@H](CO)NC(=O)CCCC(=O)O)C2CCCCC2)[C@H](O)[C@H](C)O1` [Prodrug 2, Glutaryl-Ser-Ala-Ser-Chg-Gln-Ser-Leu-Dox] (Glutaryl-SAS[Chg]QSL-{Doxorubicin(3'-N)}): the pIC50 with LNCaP cells (setting [2]) was 6.57. Moreover, in the series on DU145 cells, the “Selectivity against DU145” value turned out to be 370. For the same compound, at human PSA, the “% of prodrug at 60 min” value amounted to 12%.
Regarding `COc1cccc2c1C(=O)c1c(O)c3c(c(O)c1C2=O)C[C@@](O)(C(=O)COC(=O)C(C)(C)CONC(=O)[C@H](CCC(N)=O)NC(=O)[C@@H](NC(=O)[C@H](CO)NC(=O)[C@H](C)NC(=O)CC(=O)NCCCC(=O)O)C1CCCCC1)C[C@@H]3O[C@H]1C[C@H](N)[C@H](O)[C@H](C)O1` [Prodrug 4, GABA←mGly-Ala-Ser-Chg-Gln-NH—O—CH2—C(Me)2C(O)-14-O-Dox], in the series on LNCaP cells (72 h, MTT assay), the “cytotoxicity against PSA-secreting LNCaP cells (in words)” value was “comparable to that of L-377,202”. The half-life at 1 μM in series [1] amounted to 67 min. The “cytotoxin released by the prodrug” value at human PSA (PSA-mediated hydrolysis, LC-MS with accurate mass (FIG. 10)) is on record as “free doxorubicin”.
As for `COc1cccc2c1C(=O)c1c(O)c3c(c(O)c1C2=O)C[C@@](O)(C(=O)CO)C[C@@H]3O[C@H]1C[C@H](N)[C@H](O)[C@H](C)O1` [Dox, Doxorubicin], the “times more potent than Leu-Doxorubicin at killing tumor cells” value in the series on tumor cells is on record as 10 times. Moreover, the pIC50 with LNCaP cells (Homo sapiens, LNCaP, 72 h) is above 7.15. Also, the “Selectivity against DU145” value in the series with DU145 cells was found to be 1.
As for `COc1cccc2c1C(=O)c1c(O)c3c(c(O)c1C2=O)C[C@@](O)(C(=O)CO)C[C@@H]3O[C@H]1C[C@H](NC(=O)[C@H](CC(C)C)NC(=O)[C@H](CO)NC(=O)[C@H](CCC(N)=O)NC(=O)[C@@H](NC(=O)[C@H](CO)NC(=O)[C@H](C)NC(=O)[C@@H]2C[C@@H](O)CN2C(=O)CCCC(=O)O)C2CCCCC2)[C@H](O)[C@H](C)O1` [Prodrug 1, Glutaryl-Hyp-Ala-Ser-Chg-Gln-Ser-Leu-Dox] (Glutaryl-[Hyp]AS[Chg]QSL-{Doxorubicin(3'-N)}), the pIC50 in the series on LNCaP cells (setting [2]) is 6.74. Besides, the “Selectivity against DU145” value in the series on DU145 cells is given as 560. The “% of prodrug at 60 min” value at human PSA was determined as 13%.
